Assay results reported in patent US8822467B2 (Ligand Pharmaceuticals Inc., priority 2009, dated 2014).

target: T1, human CRTH2 (Homo sapiens, UniProt Q9Y5Y4); assay: [35S]GTPγS binding assay (SPA) on membranes from CHO-K1 cells stably expressing human CRTH2, stimulated with 60 nM DHK-PGD2; format: biochemical; settings: potency class symbols; Table 2; read-out: CRTH2 hGTPγS IC50
T1 construct: expressed in transfected cells
T1 sequence (Q9Y5Y4 1-395): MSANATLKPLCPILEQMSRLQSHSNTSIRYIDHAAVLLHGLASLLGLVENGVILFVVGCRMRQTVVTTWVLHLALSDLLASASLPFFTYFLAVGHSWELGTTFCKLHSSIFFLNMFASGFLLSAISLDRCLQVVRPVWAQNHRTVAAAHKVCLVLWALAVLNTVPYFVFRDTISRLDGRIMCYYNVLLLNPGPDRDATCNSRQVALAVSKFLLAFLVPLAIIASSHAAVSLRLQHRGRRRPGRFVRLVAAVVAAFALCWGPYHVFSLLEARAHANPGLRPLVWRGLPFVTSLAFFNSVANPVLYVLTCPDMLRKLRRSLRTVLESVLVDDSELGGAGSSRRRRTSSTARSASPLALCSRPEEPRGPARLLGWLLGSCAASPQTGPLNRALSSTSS
Procedure, shortened: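 Read-out is scintillation proximity: bound [35S]GTPγS (500 pM, with 10 μM GDP) was counted 4 h after centrifuging a 2 h ambient-temperature incubation. Reactions held 4 μg human CRTH2 CHO-K1 membrane protein, 60 nM DHK-PGD2 agonist and test compounds at increasing concentrations. Buffer: 20 mM HEPES pH 7.4, 10 mM MgCl2, 300 mM NaCl, 0.2% BSA, 1% DMSO.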

Question: How did the IC50 turn out when CC(C)N(Cc1ccc(OCC(=O)O)c(-c2cccc(C(F)(F)F)c2)c1)S(=O)(=O)c1ccc(F)c(F)c1 [Example 152, 2-(3-trifluoromethylphenyl)-4-((3,4-difluoro-N-isopropylphenylsulfonamido)methyl)phenoxyacetic acid] was run?
Answer: 1 to 10 µM

Question: COc1cccc(S(=O)(=O)N(C)Cc2ccc(OCC(=O)O)c(-c3cccc(C(F)(F)F)c3)c2)c1 [Example 153, 2-(3-trifluoromethylphenyl)-4-((3-methoxy-N-methylphenylsulfonamido)methyl)phenoxyacetic acid] was tested. Which IC50 did it give?
Answer: 1 to 10 µM

Question: CN(Cc1ccc(OCC(=O)O)c(-c2ccc(F)c(F)c2)c1)S(=O)(=O)c1ccccc1 [Example 154, 2-(3,4-difluorophenyl)-4-((N-methylphenylsulfonamido)methyl)phenoxyacetic acid] was tested. Which IC50 did it give?
Answer: 1 to 10 µM

Question: How did the IC50 turn out when CN(Cc1ccc(OCC(=O)O)c(-c2cnccn2)c1)S(=O)(=O)c1ccc(F)cc1 [Example 155, 2-(pyrazinyl)-4-((4-fluoro-N-methylphenylsulfonamido)methyl)phenoxyacetic acid] was run?
Answer: 1 to 10 µM

Question: For Cc1cccc(-c2cc(CN(C)S(=O)(=O)c3ccc(F)cc3)ccc2OCC(=O)O)c1 [Example 156, 2-(3-methylphenyl)-4-((4-fluoro-N-methylphenylsulfonamido)methyl)phenoxyacetic acid], which IC50 is on record?
Answer: 1 to 10 µM

Question: How did the IC50 turn out when CN(Cc1ccc(OCC(=O)O)c(-c2ccc(F)c(Cl)c2)c1)S(=O)(=O)c1ccc(F)cc1 [Example 157, 2-(3-chloro-4-fluorophenyl)-4-((4-fluoro-N-methylphenylsulfonamido)methyl)phenoxyacetic acid] was run?
Answer: 1 to 10 µM

Question: For CC(C)N(Cc1ccc(OCC(=O)O)c(-c2cccc(C(F)(F)F)c2)c1)S(=O)(=O)c1ccc(F)cc1 [Example 158, 2-(3-trifluoromethylphenyl)-4-((4-fluoro-N-isopropylphenylsulfonamido)methyl)phenoxyacetic acid], which IC50 is on record?
Answer: 1 to 10 µM

Question: For CN(Cc1ccc(OCC(=O)O)c(-c2cccc(C(F)(F)F)c2)c1)S(=O)(=O)Cc1ccccc1 [Example 159, 2-(3-trifluoromethylphenyl)-4-((N-methylbenzylsulfonamido)methyl)phenoxyacetic acid], which IC50 is on record?
Answer: 1 to 10 µM

Question: For Cc1noc(C)c1S(=O)(=O)N(C)Cc1ccc(OCC(=O)O)c(-c2cccc(C(F)(F)F)c2)c1 [Example 160, 2-(3-trifluoromethylphenyl)-4-((N,3,5-trimethylisoxazole-4-sulfonamido)methyl)phenoxyacetic acid], which IC50 is on record?
Answer: 1 to 10 µM

Question: For CN(Cc1cc(F)c(OCC(=O)O)c(-c2cccc(C(F)(F)F)c2)c1)S(=O)(=O)c1ccc(F)cc1 [Example 161, 2-(3-trifluoromethylphenyl)-4-((4-fluoro-N-methylphenylsulfonamido)methyl)-6-fluorophenoxyacetic acid], which IC50 is on record?
Answer: 1 to 10 µM

Question: Which IC50 does the source give for CN(Cc1ccc(OCC(=O)O)c(-c2ccc(C(F)(F)F)cc2)c1)S(=O)(=O)c1ccc(F)cc1 [Example 162, 2-(4-trifluoromethylphenyl)-4-((4-fluoro-N-methylphenylsulfonamido)methyl)phenoxyacetic acid] here?
Answer: 1 to 10 µM

Question: CN(Cc1ccc(OCC(=O)O)c(-c2cccc(Cl)c2)c1)S(=O)(=O)c1ccc(F)cc1 [Example 163, 2-(3-chlorophenyl)-4-((4-fluoro-N-methylphenylsulfonamido)methyl)phenoxyacetic acid] was tested. Which IC50 did it give?
Answer: 1 to 10 µM

Question: How did the IC50 turn out when COc1ccc(-c2cc(CN(C)S(=O)(=O)c3ccc(F)cc3)ccc2OCC(=O)O)cc1 [Example 164, 2-(4-methoxyphenyl)-4-((4-fluoro-N-methylphenylsulfonamido)methyl)phenoxyacetic acid] was run?
Answer: 1 to 10 µM

Question: CN(Cc1ccc(OCC(=O)O)c(-c2ccc(Cl)cc2)c1)S(=O)(=O)c1ccc(F)cc1 [Example 165, 2-(4-chlorophenyl)-4-((4-fluoro-N-methylphenylsulfonamido)methyl)phenoxyacetic acid] was tested. Which IC50 did it give?
Answer: 1 to 10 µM

Question: How did the IC50 turn out when CN(Cc1ccc(OCC(=O)O)c(-c2cc(F)ccc2F)c1)S(=O)(=O)c1ccccc1 [Example 166, 2-(2,5-difluorophenyl)-4-((N-methylphenylsulfonamido)methyl)phenoxyacetic acid] was run?
Answer: 1 to 10 µM

Question: How did the IC50 turn out when CN(Cc1ccc(OCC(=O)O)c(-c2cccc(Cl)c2)c1)S(=O)(=O)c1ccccc1 [Example 167, 2-(3-chlorophenyl)-4-((N-methylphenylsulfonamido)methyl)phenoxyacetic acid] was run?
Answer: 1 to 10 µM

Question: With CN(Cc1ccc(OCC(=O)O)c(-c2cc(C(F)(F)F)ccn2)c1)S(=O)(=O)c1ccc(F)cc1 [Example 168, 2-(4-trifluoromethylpyridinyl)-4-((4-fluoro-N-methylphenylsulfonamido)methyl)phenoxyacetic acid] as the compound, how does the IC50 read?
Answer: 1 to 10 µM

Question: With CN(Cc1ccc(OCC(=O)O)c(-c2ccccc2)c1)S(=O)(=O)c1ccccc1 [Example 169, 2-phenyl-4-((N-methylphenylsulfonamido)methyl)phenoxyacetic acid] as the compound, how does the IC50 read?
Answer: 1 to 10 µM

Question: CN(Cc1ccc(OCC(=O)O)c(-c2cccc(C(F)(F)F)c2)c1)S(=O)(=O)c1ccccc1Cl [Example 170, 2-(3-trifluoromethylphenyl)-4-((2-chloro-N-methylphenylsulfonamido)methyl)phenoxyacetic acid] was tested. Which IC50 did it give?
Answer: 1 to 10 µM

Question: Cc1noc(C)c1-c1cc(CN(C)S(=O)(=O)c2ccc(F)cc2)ccc1OCC(=O)O [Example 171, 2-(3,5-dimethylisoxazol-4-yl)-4-((4-fluoro-N-methylphenylsulfonamido)methyl)phenoxyacetic acid] was tested. Which IC50 did it give?
Answer: 1 to 10 µM

Question: How did the IC50 turn out when CN(Cc1ccc(OCC(=O)O)c(-c2cncnc2)c1)S(=O)(=O)c1ccccc1 [Example 172, 2-(pyrimidin-5-yl)-4-((N-methylphenylsulfonamido)methyl)phenoxyacetic acid] was run?
Answer: 1 to 10 µM

Question: With CN(Cc1ccc(OCC(=O)O)c(-c2cccc(C(F)(F)F)c2)c1)S(=O)(=O)c1ccccn1 [Example 173, 2-(3-trifluoromethylphenyl)-4-((N-methylpyridine-2-sulfonamido)methyl)phenoxyacetic acid] as the compound, how does the IC50 read?
Answer: 1 to 10 µM

Question: For CC(C)N(Cc1ccc(OCC(=O)O)c(-c2cccc(C(F)(F)F)c2)c1)S(=O)(=O)c1cc(F)cc(F)c1 [Example 174, 2-(3-trifluoromethylphenyl)-4-((3,5-difluoro-N-isopropylphenylsulfonamido)methyl)phenoxyacetic acid], which IC50 is on record?
Answer: 1 to 10 µM

Question: With CN(Cc1ccc(OCC(=O)O)c(-c2cccc(C(=O)N3CCOCC3)c2)c1)S(=O)(=O)c1ccc(F)cc1 [Example 175, 2-(3-morpholinocarbonylphenyl)-4-((4-fluoro-N-methylphenylsulfonamido)methyl)phenoxyacetic acid] as the compound, how does the IC50 read?
Answer: 1 to 10 µM

Question: With CN(Cc1ccc(OCC(=O)O)c(-c2ccc[n+]([O-])c2)c1)S(=O)(=O)c1ccc(F)cc1 [Example 176, 2-(N-oxy-pyridine-3-yl)-4-((4-fluoro-N-methylphenylsulfonamido)methyl)phenoxyacetic acid] as the compound, how does the IC50 read?
Answer: 1 to 10 µM

Question: Which IC50 does the source give for CN(Cc1ccc(OCC(=O)O)c(-c2ccccc2Cl)c1)S(=O)(=O)c1ccc(F)cc1 [Example 177, 2-(2-chlorophenyl)-4-((4-fluoro-N-methylphenylsulfonamido)methyl)phenoxyacetic acid] here?
Answer: 1 to 10 µM

Question: For CN(Cc1ccc(OCC(=O)O)c(-c2ccccc2)c1)S(=O)(=O)c1ccc(F)cc1 [Example 178, 2-phenyl-4-((4-fluoro-N-methylphenylsulfonamido)methyl)phenoxyacetic acid], which IC50 is on record?
Answer: 1 to 10 µM

Question: For CN(Cc1ccc(OCC(=O)O)c(-c2ccc(Cl)cc2)c1)S(=O)(=O)c1ccccc1 [Example 179, 2-(4-chlorophenyl)-4-((N-methylphenylsulfonamido)methyl)phenoxyacetic acid], which IC50 is on record?
Answer: 1 to 10 µM

Question: How did the IC50 turn out when CN(Cc1ccc(OCC(=O)O)c(-c2cccc3ncccc23)c1)S(=O)(=O)c1ccc(F)cc1 [Example 180, 2-(quinolin-5-yl)-4-((4-fluoro-N-methylphenylsulfonamido)methyl)phenoxyacetic acid] was run?
Answer: 1 to 10 µM

Question: CN(Cc1ccc(OCC(=O)O)c(-c2cccc(C(F)(F)F)c2)c1)S(=O)(=O)C1CC1 [Example 181, 2-(3-trifluoromethylphenyl)-4-((N-methylcyclopropanesulfonamido)methyl)phenoxyacetic acid] was tested. Which IC50 did it give?
Answer: 1 to 10 µM

Question: How did the IC50 turn out when CN(C)S(=O)(=O)N(C)Cc1ccc(OCC(=O)O)c(-c2cccc(C(F)(F)F)c2)c1 [Example 182, 2-(3-trifluoromethylphenyl)-4-((N-methyldimethylaminosulfonamido)methyl)phenoxy acetic acid] was run?
Answer: 1 to 10 µM

Question: With CN(Cc1ccc(OCC(=O)O)c(-c2ccc3cc[nH]c3c2)c1)S(=O)(=O)c1ccc(F)cc1 [Example 183, 2-(1H-indol-6-yl)-4-((4-fluoro-N-methylphenylsulfonamido)methyl)phenoxyacetic acid] as the compound, how does the IC50 read?
Answer: 1 to 10 µM

Question: Which IC50 does the source give for CN(Cc1ccc(OCC(=O)O)c(-c2ccc3ncn(C)c3c2)c1)S(=O)(=O)c1ccc(F)cc1 [Example 184, 2-(3-methyl-3H-benzo[d]imidazol-5-yl)-4-((4-fluoro-N-methylphenylsulfonamido)methyl)phenoxyacetic acid] here?
Answer: 1 to 10 µM

Question: CN(Cc1ccc(OCC(=O)O)c(-c2cccc3cnccc23)c1)S(=O)(=O)c1ccc(F)cc1 [Example 185, 2-(isoquinolin-5-yl)-4-((4-fluoro-N-methylphenylsulfonamido)methyl)phenoxyacetic acid] was tested. Which IC50 did it give?
Answer: 1 to 10 µM
